Results on 7 compounds are retold here after PMC10086185, “Synthesis, radiolabeling, and evaluation of a (4-quinolinoyl)glycyl-2-cyanopyrrolidine analogue for fibroblast activation protein (FAP) PET imaging” (Frontiers in Bioengineering and Biotechnology, 2023).

Read-outs that look alike come from different tables or passages of the source.

Experiment [1] has as its system FAP. As to conditions: cited from earlier work; for EC50: ref Lindner et al., 2018.
Experiment [2] has as its system U87MG cells. Put plainly: Cellular uptake of [^18F]3 in U87MG cells. The experiment is classed as cell-based. As to conditions: U87 cells; compound 3 10 µM. The protocol: (§1) Briefly, all cells were divided into the following two groups: A: blocking group and B: vehicle group. All cells were cultured, grouped, and plated (approximately 2*10^6 cells per well) before use. Cells were treated with [^18F]3 (74 KBq) and incubated at 37°C under a 5% CO2 atmosphere. […] Incubated at 37°C for 1 h, the medium from each well was removed, and the cells were washed twice with 1 mL of PBS. The medium and the PBS from each well were combined and counted in a Gamma counter (PerkinElmer Wizard 2470) for radioactivity counts. The cells were then handled with 1 mL of 1 M NaOH, and the lysates were also counted in the Wizard 2470 gamma counter. The uptake ratios for each group were then calculated with this equation: %Dose = […](medium counts + PBS counts + cell lysate counts).

The test system of experiment [3] is A549-FAPI xenograft tumors. The experiment in a line: Micro-PET/CT imaging, A549-FAPI xenograft tumors. The experiment is classed as in vivo, BALB/c nude mice. Conditions: A549-FAPI tumors; pre-injection of compound 3, 2 mg/kg. The procedure: BALB/c nude mice used in this study were obtained from the Animal Center of Sichuan University. Tumor-bearing mouse models were established by the subcutaneous injection of 100 µL of PBS suspension containing approximately 1*10^6 tumor cells to the body side of the subjects. The tumor volume was monitored every day, and the tumor-bearing mice were ready for imaging once the tumor volume reached 0.5 mm^3 (tumor volume can be calculated by this equation: Volume = 0.5 * long tail * short tail *short tail). Micro-PET/CT imaging studies were performed on the IRIS Micro-PET/CT system (Inviscan SAS, France). Tumor-bearing mice were injected with approximately 11.2–14.8 MBq of [^18F]3 (200 µL) via the tail vein under anaesthetization by isoflurane. Static PET images were obtained at designated time points and were reconstructed with a 3D-OSEM algorithm using a Monte Carlo-based accurate detector model. Then, 170 sec-CT acquisition was conducted with 50 kV, 1 mA X-ray output for attenuation correction and anatomical orientation. ROIs (regions of interest) were drawn on the lung, kidney, liver, and tumor by OsiriX software. SUV (standardized uptake value) of the ROIs was directly obtained from OsiriX for each subject according to this formula: SUV = Voxal value (Bq/mL) * Body weight (kg)/(Decay corrected Dose (Bq) * 1,000 (g/kg)).
BALB/c nude mice used in this study were obtained from the Animal Center of Sichuan university. Tumor-bearing mice model were established by the subcutaneous injection of 100 µL of PBS suspension containing approximately 1*10^6 tumor cells to the body side of the subjects. The tumor volume was monitored every day and the tumor-bearing mice were ready for imaging once the tumor volume reach 0.5 mm^3 (tumor volume can be calculated by this equation: Volume = 0.5 * long tail * short tail *short tail). Micro-PET/CT imaging studies were performed on the IRIS Micro-PET/CT system (Inviscan SAS, France). Tumor-bearing mice were injected with approximately 11.2-14.8 MBq of [^18F]3 (200 µL) via tail vein under anaesthetization by isoflurane. Static PET images were obtained at designated time points and were reconstructed with a 3D-OSEM algorithm using a Monte-Carlo based accurate detector model. A 170 sec-CT acquisition was conducted with 50 kV, 1 mA X-ray output for attenuation correction and anatomical orientation. ROIs (regions of interest) were drawn on lung, kidney, liver and tumor by Osirix software. SUV (standardized uptake value) of the ROIs was directly obtained from Osirix for each subject according to this formula: SUV = Voxal value (Bq/mL) * Body weight (kg)/(Decay corrected Dose (Bq) * 1000 (g/kg)).

The subject of experiment [4] is A549-FAPI cells (human FAP-expressing A549). Put plainly: Cellular uptake of [^18F]3 in A549-FAPI cells. The class given is cell-based. Conditions: compound 3 10 µM. The protocol: as §1
The mark [5] stands for this setting: FAP, ref Wang et al., 2022, read-out: IC50.
Where [6] appears, read: ref Jansen et al., 2013, Jansen et al., 2014, read-out: FAP IC50.

As usually defined, the EC50 is the concentration giving half of the maximal effect. Consider `N#C[C@@H]1CCCN1C(=O)CNC(=O)c1ccnc2ccc(OCCCN3CCN(C(=O)CN4CCN(CC(=O)O)CCN(CC(=O)O)CCN(CC(=O)O)CC4)CC3)cc12` [FAPI-02], for which the EC50 in experiment [1] is 21 nM. Turning to `N#C[C@@H]1CC(F)(F)CN1C(=O)CNC(=O)c1ccnc2ccc(OCCCN3CCN(C(=O)CN4CCN(CC(=O)O)CCN(CC(=O)O)CCN(CC(=O)O)CC4)CC3)cc12` [FAPI-04], the EC50 in experiment [1] is 6.5 nM. The IC50 is the concentration needed to halve the response being measured. With `[11CH3]Oc1ccc2nccc(C(=O)NCC(=O)N3CCC[C@H]3C#N)c2c1` [[^11C]RJ001], the half-maximal inhibitory concentration (IC50) in experiment [1] (setting [5]) is 9.2 nM.

As for `[11CH3]Oc1ccc2nccc(C(=O)NCC(=O)N3CC(F)(F)C[C@H]3C#N)c2c1` [[^11C]RJ002], in experiment [1] (setting [5]), the IC50 is 8.5 nM. In the case of `N#C[C@@H]1CC(F)(F)CN1C(=O)CNC(=O)c1ccnc2ccccc12` [compound 1], in experiment [1] (setting [6]), the IC50 was […]. On to `N#C[C@@H]1CCCN1C(=O)CNC(=O)c1ccnc2ccc(F)cc12` [compound 2], for which the half-inhibitory concentration (IC50) in experiment [1] (setting [6]) was 10.3 nM. Take `N#C[C@@H]1CC(F)(F)CN1C(=O)CNC(=O)c1ccnc2ccc(F)cc12` [compound 3]: the “Uptake in blocking group as % of vehicle group” value is 79.38% in experiment [2] and 52.34% in experiment [4]. In experiment [1] (ref previous SAR studies), the “Inhibitory activity against FAP” value is reported as “nanomolar activity”. Also, the “Inhibition of tumor SUV” value in experiment [3] is given as “over 50%”.
